This note sets out measurements from patent EP4342890A1, “PLATFORM AND SCAFFOLD FOR FAP TARGETING AGENTS” (Erasmus University Rotterdam Medical Center, priority 2022, dated 2024).

Data set [1] is described as follows: LogD7.4 shake-flask method (n-octanol/PBS). The data set is classed as physicochemical. The settings on record: radiolabeled compound; n-octanol/PBS pH 7.4; triplicates. On the procedure: Distribution coefficients (LogD7.4 values) were determined by a shake-flask method. Sample containing the ^203Pb-labeled compound was added to a vial containing 600 µL PBS (pH 7.4) and 600 µL n-octanol. The vial was vortexed vigorously and then centrifuged for 10 min for phase separation. Samples of the octanol (200 µL) and aqueous (200 µL) phases were taken and counted on a PerkinElmer WIZARD 2480 gamma counter. LogD7.4 value was calculated by using the equation: LogD7.4 = log [(counts in octanol phase)/(counts in aqueous phase)]. All the experiments were performed in triplicates.

Another data set addresses T1, FAP (Homo sapiens, UniProt Q12884).
T1 sequence (Q12884 1-760): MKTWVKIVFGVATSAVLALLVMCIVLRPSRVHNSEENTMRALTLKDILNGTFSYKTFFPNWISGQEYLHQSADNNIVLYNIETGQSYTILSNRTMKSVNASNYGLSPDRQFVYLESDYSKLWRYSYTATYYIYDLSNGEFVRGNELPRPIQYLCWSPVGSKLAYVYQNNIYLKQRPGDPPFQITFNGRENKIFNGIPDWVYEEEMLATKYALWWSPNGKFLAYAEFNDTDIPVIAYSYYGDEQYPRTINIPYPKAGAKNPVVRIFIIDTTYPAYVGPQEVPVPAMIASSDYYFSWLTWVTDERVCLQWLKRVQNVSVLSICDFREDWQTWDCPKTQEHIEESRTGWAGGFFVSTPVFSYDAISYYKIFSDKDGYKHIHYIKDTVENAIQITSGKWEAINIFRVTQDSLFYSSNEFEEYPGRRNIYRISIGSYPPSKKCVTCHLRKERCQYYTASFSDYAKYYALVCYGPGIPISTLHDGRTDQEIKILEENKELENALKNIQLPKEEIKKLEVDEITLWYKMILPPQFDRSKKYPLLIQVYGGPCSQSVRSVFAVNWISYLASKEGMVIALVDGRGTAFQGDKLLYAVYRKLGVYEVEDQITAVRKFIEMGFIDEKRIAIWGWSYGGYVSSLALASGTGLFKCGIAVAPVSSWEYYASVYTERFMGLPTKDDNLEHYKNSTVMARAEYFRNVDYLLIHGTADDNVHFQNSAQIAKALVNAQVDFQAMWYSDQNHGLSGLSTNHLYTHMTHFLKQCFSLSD
The data set is described as follows: In vitro inhibition assay on human FAP (Z-GP-AMC substrate). The settings on record: enzymatic assay; 20 µM Z-GP-AMC, 20 nM FAP; unit inferred. The format is biochemical. On the procedure:
Enzymatic activity of human FAP (hFAP) and mouse FAP (mFAP) on the Z-GP-AMC substrate was measured at room temperature on a Hidex microplate reader by monitoring the fluorescence at an excitation wavelength of 360 nm and an emission wavelength of 465 nm. The reaction mixture contained 20 µM substrate, 20 nM FAP, assay buffer (50 mM Tris, 100 mM NaCl, 1 mM EDTA, pH 7.4) and tested compound (serial dilution from 10^-6 to 10^-12) in a total volume of 50 µL.

The subject of the next data set is FAP^+ U-87 cells. The experiment in a line: Cytotoxicity assay (resazurin) in U-87 cells. The format is cell-based. The settings on record: single dose 1 µM, incubation time not stated. As to the method: In 96-well plates, U-87 cells (3 × 10^3) were seeded in each well and incubated at 37 °C and 5% CO2 for 24 h. The medium was removed and the wells were washed once with PBS. The cytotoxic drug (positive control) or the eFAP conjugate containing the drug were prepared at various concentrations (i.e., 1, 10, 100, 1000 nM) in DMEM culture medium, supplemented with 2 mM L-glutamine, 10% FBS, 50 units/mL penicillin, and 50 µg/mL streptomycin. Medium was used as a negative control. Cells were incubated with 100 µL of the tested compounds for 1, 24, 48, and 72 h. After incubation, medium was removed and each well was washed once with PBS. Next, 100 µL of 10% resazurin solution in culture medium was added to each well and incubated for 2.5 h. Fluorescence measurements were carried out using a microplate reader at 544 nm excitation and 590 nm emission.
On the technique in general: The colour change of resazurin is a common sign of viable cells or microbes.

The test system of a further data set is U-87 tumor. The experiment in a line: Near-infrared fluorescence imaging of U-87 tumor bearing mice. The data set is classed as in vivo. The note with it: 2 nmol intravenous. The source says:
Six-week-old male Balb/c nu/nu-specific and opportunistic pathogen-tree (SOPF) mice were housed in individually ventilated cages, with 4 mice per cage. Upon arrival, mice were acclimated for 1 week, with access to food and water ad libitum. Mice were subcutaneously inoculated on the right shoulder with U-87 or HT-1080.hFAP cells (1 × 10^6 cells). Xenografts were allowed to grow until they reached an appropriate size at the start of the studies. All animal experiments were approved by the Animal Welfare Committee of the Erasmus MC and were conducted in agreement with institutional guidelines (license number: AVD101002017867).
Evaluation of targeting performance of eFAP-17 in near-infrared fluorescence imaging of U-87 tumor bearing mice after intravenous injection of 2 nmol of the probe are given in Figure 9 showing A) NIRF imaging of U-87 tumor bearing mice at 1 h after intravenous injection of 2 nmol of CW800 (left, negative control) or eFAP-17 (right) and B) image of excised tumors 2.5 h post administration of CW800 (left) or eFAP-17 (right).

The molecule `N#C[C@@H]1CC(F)(F)CN1C(=O)CNC(=O)c1ccnc2c(OCCCNC(=O)CCC(C(=O)O)N3CCN(CC(=O)O)CCN(CC(=O)O)CCN(CC(=O)O)CC3)cccc12` (stereo partly drawn) [eFAP-8, 2,2',2"-(10-(1-Carboxy-4-((3-((4-((2-((S)-2-cyano-4,4-difluoropyrrolidin-1-yl)-2-oxoethyl)carbamoyl)quinolin-8-yl)oxy)propyl)amino)-4-oxobutyl)-1,4,7,10-tetraazacyclododecane-1,4,7-triyl)triacetic acid] returned a LogD7.4 in data set [1] of -3.58 ± 0.09. Besides, at FAP, the IC50 is 1.7 ± 0.5 nM.
The matching figures for `N#C[C@@H]1CC(F)(F)CN1C(=O)CNC(=O)c1ccnc2c(OCCCNC(=O)C3CCC(CNC(=O)CN4CCN(CC(=O)O)CCN(CC(=O)O)CCN(CC(=O)O)CC4)CC3)cccc12` (stereo partly drawn) [eFAP-9, 2,2',2"-(10-(2-(((4-((3-((4-((2-((S)-2-Cyano-4,4-difluoropyrrolidin-1-yl)-2-oxoethyl)carbamoyl)quinolin-8-yl)oxy)propyl)carbamoyl)cyclohexyl)methyl)amino)-2-oxoethyl)-1,4,7,10-tetraazacyclododecane-1,4,7-triyl)triacetic acid]: -3.47 ± 0.07 and 3.6 ± 2.3 nM.
`N#C[C@@H]1CC(F)(F)CN1C(=O)CNC(=O)c1ccnc2c(OCCCNC(=O)COCC(=O)Nc3ccc(CNC(=O)CN4CCN(CC(=O)O)CCN(CC(=O)O)CCN(CC(=O)O)CC4)cc3)cccc12` [eFAP-11, (S)-2,2',2"-(10-(2-((4-(2-(2-((3-((4-((2-(2-Cyano-4,4-difluoropyrrolidin-1-yl)-2-oxoethyl)carbamoyl)quinolin-8-yl)oxy)propyl)amino)-2-oxoethoxy)acetamido)benzyl)amino)-2-oxoethyl)-1,4,7,10-tetraazacyclododecane-1,4,7-triyl)triacetic acid] gave a LogD7.4 in data set [1] of -3.34 ± 0.07. At FAP, this molecule had an IC50 of 1.8 ± 0.8 nM.
In data set [1], `N#C[C@@H]1CC(F)(F)CN1C(=O)CNC(=O)c1ccnc2c(OCCCNC(=O)CN3CCN(C(=O)CN4CCN(CC(=O)O)CCN(CC(=O)O)CCN(CC(=O)O)CC4)CC3)cccc12` [eFAP-12, (S)-2,2',2"-(10-(2-(4-(2-((3-((4-((2-(2-Cyano-4,4-difluoropyrrolidin-l-yl)-2-oxoethyl)carbamoyl)quinolin-8-yl)oxy)propyl)amino)-2-oxoethyl)piperazin-1-yl)-2-oxoethyl)-1,4,7,10-tetraazacyclododecane-1,4,7-triyl)triacetic acid] displayed a LogD7.4 of -3.72 ± 0.08.
The same measure, in the same setting: the figure for `N#C[C@@H]1CC(F)(F)CN1C(=O)CNC(=O)c1ccnc2c(OCCCNC(=O)CN3CCC(NC(=O)CN4CCN(CC(=O)O)CCN(CC(=O)O)CCN(CC(=O)O)CC4)CC3)cccc12` [eFAP-10, (S)-2,2',2"-(10-(2-((1-(2-((3-((4-((2-(2-Cyano-4,4-difluoropyrrolidin-1-yl)-2-oxoethyl)carbamoyl)quinolin-8-yl)oxy)propyl)amino)-2-oxoethyl)piperidin-4-yl)amino)-2-oxoethyl)-1,4,7,10-tetraazacyclododecane-1,4,7-triyl)triacetic acid] is -3.64 ± 0.02.
`N#C[C@@H]1CC(F)(F)CN1C(=O)CNC(=O)c1ccnc2c(OCCCNC(=O)CN3CCN(CCNC(=O)CN4CCN(CC(=O)O)CCN(CC(=O)O)CCN(CC(=O)O)CC4)CC3)cccc12` [eFAP-13, (S)-2,2',2"-(10-(2-((2-(4-(2-((3-((4-((2-(2-Cyano-4,4-difluoropyrrolidin-1-yl)-2-oxoethyl)carbamoyl)quinolin-8-yl)oxy)propyl)amino)-2-oxoethyl)piperazin-1-yl)ethyl)amino)-2-oxoethyl)-1,4,7,10-tetraazacyclododecane-1,4,7-triyl)triacetic acid] registered a LogD7.4 in data set [1] of -3.28 ± 0.15. The 50% inhibitory concentration (IC50) against FAP amounted to 1.7 ± 0.5 nM.
As to “(1^4S,1^6S,3^2S,3^3S,2R,4S,10E,12E,14R)-8^6-chloro-1^4-hydroxy-8^5,14-dimethoxy-3^3,2,7,10-tetramethyl-1^2,6-dioxo-7-aza-1(6,4)-oxazinana-3(2,3)-oxirana-8(1,3)-benzenacyclotetradecaphane-10,12-dien-4-yl N-(3-((3-((3-((4-((2-((S)-2-cyano-4,4-difluoropyrrolidin-1-yl)-2-oxoethyl)carbamoyl)quinolin-8-yl)oxy)propyl)amino)-3-oxopropyl)disulfaneyl)propanoyl)-N-methyl-L-alaninate [eFAP-18]”, in the data set with FAP^+ U-87 cells, the cell viability entry is listed as “approximately 25%”.
`COc1cc2cc(c1Cl)N(C)C(=O)C[C@H](OC(=O)[C@H](C)N(C)C(=O)CCS)[C@]1(C)O[C@H]1[C@H](C)[C@@H]1C[C@@](O)(NC(=O)O1)[C@H](OC)/C=C/C=C(\C)C2` [DM1, Mertansine]: the cell viability with FAP^+ U-87 cells stood at 40%.
`CC1(C)C(/C=C/C2=C(Oc3ccc(S(=O)(=O)O)cc3)C(=C/C=C3/N(CCCCCC(=O)NCCCOc4cccc5c(C(=O)NCC(=O)N6CC(F)(F)C[C@H]6C#N)ccnc45)c4ccc(S(=O)(=O)O)cc4C3(C)C)/CCC2)=[N+](CCCCS(=O)(=O)[O-])c2ccc(S(=O)(=O)O)cc21` [eFAP-17, 4-(2-((E)-2-((E)-3-(2-((E)-1-(6-((3-((4-((2-((S)-2-Cyano-4,4-difluoropyrrolidin-1-yl)-2-oxoethyl)carbamoyl)quinolin-8-yl)oxy)propyl)amino)-6-oxohexyl)-3,3-dimethyl-5-sulfoindolin-2-ylidene)ethylidene)-2-(4-sulfophenoxy)cyclohex-1-en-1-yl)vinyl)-3,3-dimethyl-5-sulfo-3H-indol-1-ium-1-yl)butane-1-sulfonate] came in with an IC50 on FAP of 5.6 ± 1.6 nM. For the same molecule, the “accumulation in healthy tissues” value in the data set on U-87 tumor (NIRF imaging) was “low accumulation in healthy tissues”. For the same molecule, the “uptake in the FAP overexpressing tumor” value with U-87 tumor (NIRF imaging at 1 h, excised tumors 2.5 h) was “high uptake in the FAP overexpressing tumor”.

As a reminder, the IC50 is the concentration that gives 50% inhibition. A lower IC50 goes with greater potency in that assay. A word on the cell viability: it is a per cent measure of how many cells are alive, often set against a control. A lower cell viability goes with a greater loss of cells.
